Experimental data as given in US20050267067A1, “Radical reaction inhibitors, method for inhibition of radical reactions, and use thereof” (priority 2002, published 2005).

How the values were obtained:
[1] = Modification of L-lysine by lipid peroxides (protein carbonyl, OLAARPs); conditions: for OLAARPs Formation: (%) / Protein carbonyl Formation: (%): L-lysine, versus no saccharide; for Formed OLAARPs / Formed Protein carbonyl: 37° C., 24 hours
Experimental: (§1) In this experiment, saccharide solutions were prepared to give an equal total saccharide molar concentration in each solution.
(§2) As a negative control, PBS was used.
(§3) To five milliliters of either of the above saccharide solutions for testing or the negative control was added 10 mg of calf serum albumin (BSA) or L-lysine, followed by dissolving. To each of the resulting solutions was added 25 μg of 2,4-decadienal or malondialdehyde (MDA) as a lipid peroxide, followed by reaction at 37° C. for 24 hours. After completion of the reaction, protein carbonyl and reaction products of oxidized lipids/aminoacids (OLAARPs) formed as aldehyde adducts were quantified on the calorimetric method. […] The formation levels of protein carbonyl and OLAARPs were determined based on the absorbances obtained in this experiment, in terms of the molar absorbance coefficient for each molecule as disclosed in Biochim. Biophys. Acta, No. 1,258, pp. 319-327 (1985).
To each of the resulting mixtures was added 600 μl of 30% trichloroacetic acid, and the mixture was allowed to stand at 0° C. for one hour and centrifuged at 10,000 rpm for 15 min to obtain a precipitate, followed by washing the resulting precipitate four times with two milliliters of ethanol/ethylacetate (1:1), respectively, adding 1.5 ml of 6M-guanidine hydrochloride/20 mM-NaPi/TFA (pH 2.3) to the resultant, allowing the mixture to stand at 37° C. for 30 min, and measuring the absorbance of the resulting mixture at a wavelength of 580 nm, ε=35,000 M^−1 cm^−1. […] To any one of the resulting mixtures was added two milliliters of a 12.5 mM DNPH/2.5 N-hydrochloride solution, and the resulting mixture was allowed to stand at 45° C. for 30 min, followed by measuring the absorbance of the resulting mixture at a wavelength of 580 nm, E=35,000 M^−1 cm^−1.

calf serum albumin (BSA) = test: Modification of BSA by lipid peroxides (protein carbonyl, OLAARPs); format: biochemical; conditions: for OLAARPs Formation: (%) / Protein carbonyl Formation: (%): BSA, versus no saccharide; for Formed OLAARPs / Formed Protein carbonyl: 37° C., 24 hours
Experimental: as §1, §2
as §3, with “Biophys.” for “Biophys. Acta, No. 1,258, pp. 319-327 (1985).”
To each of the resulting mixtures was added 600 μl of 30% trichloroacetic acid, and the mixture was allowed to stand at 0° C. for one hour and centrifuged at 10,000 rpm for 15 min to obtain a precipitate, followed by washing the resulting precipitate four times with two milliliters of ethanol/ethylacetate (1:1), respectively, adding 1.5 ml of 6M-guanidine hydrochloride/20 mM-NaPi/TFA (pH 2.3) to the resultant, allowing the mixture to stand at 37° C. for 30 min, and measuring the absorbance of the resulting mixture at a wavelength of 580 nm, ε=35,000 M^−1 cm^−1.

sucrase = test: Sucrase activity of rat small intestinal mucosal enzyme solution after AAPH oxidation; format: biochemical
Experimental: One milliliter of the above rat small intestinal mucosal enzyme solution, one milliliter of a 100 mM AAPH solution, one milliliter of a 50 mM phosphate buffer (pH 7.2), and one milliliter of a 400 mM of the crystalline cyclotetrasaccharide pentahydrate prepared in Experiment 1-1 were mixed, incubated at 37° C. for two hours, and measured for the activities of sucrase and maltase.
After incubated at 37° C. for 30 min, the mixture was quantified for free glucose by the GOD method.

maltase = test: Maltase activity of rat small intestinal mucosal enzyme solution after AAPH oxidation; format: biochemical
Experimental: One milliliter of the above rat small intestinal mucosal enzyme solution, one milliliter of a 100 mM AAPH solution, one milliliter of a 50 mM phosphate buffer (pH 7.2), and one milliliter of a 400 mM of the crystalline cyclotetrasaccharide pentahydrate prepared in Experiment 1-1 were mixed, incubated at 37° C. for two hours, and measured for the activities of sucrase and maltase. […] To a half milliliter of a maltose solution, which had been prepared by dissolving maltose in 50 mM sodium maleate (pH 6.6) to give a concentration of one percent (%), 0.05 ml of a AAPH-rat small intestinal mucosal enzyme solution. After incubated at 37° C. for 30 min, the mixture was quantified for free glucose by the GOD method. One unit (U) activity of maltase was defined as an enzyme amount that releases two micromoles of glucose per minutes from maltose at 37° C.

[2] = added lipid peroxide 2,4-decadienal
[3] = added lipid peroxide malondialdehyde (MDA)
[4] = enzyme solution incubated with AAPH at 37° C. for two hours, with or without cyclotetrasaccharide
[5] = versus system with no AAPH, 37° C., two hours

With `OC[C@@H](O)[C@@H](O[C@H]1O[C@H](CO)[C@@H](O)[C@H](O)[C@H]1O)[C@H](O)[C@@H](O)CO` [Maltitol, maltitol] the “OLAARPs Formation: (%)” value ([1]; 2,4-decadienal) was “(73) %”, the “Protein carbonyl Formation: (%)” value ([1]; 2,4-decadienal) was “(51) %” and the “OLAARPs Formation: (%)” value ([1]; MDA) was “(84) %”. For the same compound, the “Protein carbonyl Formation: (%)” value ([1]; MDA) was “(55) %”, the “Formed OLAARPs” value [1, 2] was 5.90 μmol/g-L-lysine and the “Formed Protein carbonyl” value [1, 2] was 6.81 μmol/g-L-lysine. For the same compound, the “Formed OLAARPs” value [1, 3] was 7.23 μmol/g-L-lysine, the “Formed Protein carbonyl” value [1, 3] was 3.29 μmol/g-L-lysine and the “OLAARPs Formation: (%)” value (calf serum albumin (BSA); 2,4-decadienal) was “(67) %”. The “Protein carbonyl Formation: (%)” value (calf serum albumin (BSA); 2,4-decadienal) was “(53) %”, the “OLAARPs Formation: (%)” value (calf serum albumin (BSA); MDA) was “(48) %” and the “Protein carbonyl Formation: (%)” value (calf serum albumin (BSA); MDA) was “(53) %”. For the same compound, the “Formed OLAARPs” value (calf serum albumin (BSA); [2]) was 2.83 μmol/g-BSA, the “Formed Protein carbonyl” value (calf serum albumin (BSA); [2]) was 7.51 μmol/g-BSA and the “Formed OLAARPs” value (calf serum albumin (BSA); [3]) was 2.78 μmol/g-BSA. For the same compound, the “Formed Protein carbonyl” value (calf serum albumin (BSA); [3]) was 1.29 μmol/g-BSA.

For `OC[C@H]1O[C@@](CO)(O[C@H]2O[C@H](CO)[C@@H](O)[C@H](O)[C@H]2O)[C@@H](O)[C@@H]1O` [Sucrose, sucrose], the “OLAARPs Formation: (%)” value ([1]; 2,4-decadienal) was “(93) %”, the “Protein carbonyl Formation: (%)” value ([1]; 2,4-decadienal) was “(81) %” and the “OLAARPs Formation: (%)” value ([1]; MDA) was “(94) %”. For the same compound, the “Protein carbonyl Formation: (%)” value ([1]; MDA) was “(96) %”, the “Formed OLAARPs” value [1, 2] was 7.54 μmol/g-L-lysine and the “Formed Protein carbonyl” value [1, 2] was 10.92 μmol/g-L-lysine. For the same compound, the “Formed OLAARPs” value [1, 3] was 8.13 μmol/g-L-lysine and the “Formed Protein carbonyl” value [1, 3] was 5.75 μmol/g-L-lysine.

In the case of `CC(C)(N=NC(C)(C)C(=N)N)C(=N)N.Cl.Cl` [AAPH, 2,2′-azo-bis(2-amidinopropane)dihydrochloride, reference compound], the Sucrase activity (sucrase; [4]) is reported as 0.0042 u/mg-protein, the “Sucrase Relative residual activity (%)” value (sucrase; [5]) is reported as “(29) %” and the Maltase activity (maltase; [4]) is reported as 0.0555 u/mg-protein. The “Maltase Relative residual activity (%)” value (maltase; [5]) was “(71) %”.
